Assay results: patent publication US20230085307A1, “PYRIDAZINONE COMPOUND AND HERBICIDE” (NISSAN CHEMICAL CORPORATION, priority 2019, published 2023)

Tests used:
barnyard grass [1] = assay: Test Example 3: herbicidal effect by foliage application, Wagner pot (Table 18, symbol H); assay type: in vivo, barnyard grass (Echinochloa crus-galli); settings: 320 g/ha
Procedure, shortened: (§1)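 Plants were sown in alluvial soil held under 0.1–0.5 cm standing water and grown 14 days in a greenhouse at 25–30 °C. An emulsifiable formulation, water-diluted to the set dose, was then sprayed onto the foliage, and effects were scored three weeks later using previously defined criteria.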

rice flat sedge = assay: Test Example 3: herbicidal effect by foliage application, Wagner pot (Table 18, symbol E); assay type: in vivo, rice flat sedge (Cyperus iria); settings: 320 g/ha
Procedure, shortened: as §1

southern crabgrass = assay: Test Example 4: herbicidal effect by soil treatment (Table 19, symbol F); assay type: in vivo, southern crabgrass (Digitaria ciliaris); settings: 320 g/ha
Procedure, shortened: (§2)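 Three weeks of greenhouse growth at 25° C. to 30° C. followed a uniform surface spray of water-diluted emulsion at a predetermined herbicide amount. Seeds had been sown beforehand under about 1.5 cm of sterilized diluvial soil. Grading followed criteria set out in an earlier test.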

green foxtail [2] = assay: Test Example 4: herbicidal effect by soil treatment (Table 19, symbol G); assay type: in vivo, green foxtail (Setaria viridis); settings: 320 g/ha
Procedure, shortened: as §2

barnyard grass [3] = assay: Test Example 4: herbicidal effect by soil treatment (Table 19, symbol H); assay type: in vivo, barnyard grass (Echinochloa crus-galli); settings: 320 g/ha
Procedure, shortened: as §2

wild oat [4] = assay: Test Example 4: herbicidal effect by soil treatment (Table 19, symbol I); assay type: in vivo, wild oat (Avena fatua); settings: 320 g/ha
Procedure, shortened: as §2

Italian ryegrass [5] = assay: Test Example 4: herbicidal effect by soil treatment (Table 19, symbol K); assay type: in vivo, Italian ryegrass (Lolium multiflorum); settings: 320 g/ha
Procedure, shortened: as §2

velvetleaf [6] = assay: Test Example 4: herbicidal effect by soil treatment (Table 19, symbol M); assay type: in vivo, velvetleaf (Abutilon theophrasti); settings: 320 g/ha
Procedure, shortened: as §2

redroot pigweed = assay: Test Example 4: herbicidal effect by soil treatment (Table 19, symbol N); assay type: in vivo, redroot pigweed (Amaranthus retroflexus); settings: 320 g/ha
Procedure, shortened: as §2

lambsquarters = assay: Test Example 4: herbicidal effect by soil treatment (Table 19, symbol O); assay type: in vivo, lambsquarters (Chenopodium album); settings: 320 g/ha
Procedure, shortened: as §2

chickweed = assay: Test Example 4: herbicidal effect by soil treatment (Table 19, symbol P); assay type: in vivo, common chickweed (Stellaria media); settings: 320 g/ha
Procedure, shortened: as §2

green foxtail [7] = assay: Test Example 5: herbicidal effect by foliage application, plastic box (Table 20, symbol G); assay type: in vivo, green foxtail (Setaria viridis); settings: foliage application, 320 g/ha, 3 weeks after application
Procedure, shortened: (§3)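 Plants sown in sterilized diluvial soil and grown 14 days in a greenhouse at 25° C to 30° C, then sprayed on the foliage with the compound's emulsion diluted in water to a predetermined herbicide amount. Injury to weeds and crops scored three weeks after application on a visual rating scale.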

wild oat [8] = assay: Test Example 5: herbicidal effect by foliage application, plastic box (Table 20, symbol I); assay type: in vivo, wild oat (Avena fatua); settings: foliage application, 320 g/ha, 3 weeks after application
Procedure, shortened: as §3

blackgrass = assay: Test Example 5: herbicidal effect by foliage application, plastic box (Table 20, symbol J); assay type: in vivo, blackgrass (Alopecurus myosuroides); settings: foliage application, 320 g/ha, 3 weeks after application
Procedure, shortened: as §3

Italian ryegrass [9] = assay: Test Example 5: herbicidal effect by foliage application, plastic box (Table 20, symbol K); assay type: in vivo, Italian ryegrass (Lolium multiflorum); settings: foliage application, 320 g/ha, 3 weeks after application
Procedure, shortened: as §3

windgrass = assay: Test Example 5: herbicidal effect by foliage application, plastic box (Table 20, symbol L); assay type: in vivo, windgrass (Apera spica-venti); settings: foliage application, 320 g/ha, 3 weeks after application
Procedure, shortened: as §3

velvetleaf [10] = assay: Test Example 5: herbicidal effect by foliage application, plastic box (Table 20, symbol M); assay type: in vivo, velvetleaf (Abutilon theophrasti); settings: foliage application, 320 g/ha, 3 weeks after application
Procedure, shortened: as §3

persian speedwell = assay: Test Example 5: herbicidal effect by foliage application, plastic box (Table 20, symbol R); assay type: in vivo, Persian speedwell (Veronica persica); settings: foliage application, 320 g/ha, 3 weeks after application
Procedure, shortened: as §3

Cc1nn(C)c(=O)c(-c2c(-c3ccc(Cl)cc3)sc3ccc(F)cc23)c1O [Compound No. 2-010, 4-(2-(4-chlorophenyl)-5-fluorobenzo[b]thiophen-3-yl)-5-hydroxy-2,6-dimethylpyridazin-3(2H)-one]
herbicidal effect on H (barnyard grass), rating 0-5 (barnyard grass [1]): 5 (Herbicidal rate of 90% or more (almost completely withered))
herbicidal effect on E (rice flat sedge), rating 0-5 (rice flat sedge): 5 (Herbicidal rate of 90% or more (almost completely withered))
herbicidal effect rating, F: southern crabgrass (southern crabgrass): 5 (Herbicidal rate of 90% or more (almost completely withered))
herbicidal effect rating, G: green foxtail (green foxtail [2]): 5 (Herbicidal rate of 90% or more (almost completely withered))
herbicidal effect rating, H: barnyard grass (barnyard grass [3]): 5 (Herbicidal rate of 90% or more (almost completely withered))
herbicidal effect rating, I: wild oat (wild oat [4]): 1 (Herbicidal rate of 5% or more and less than 20%)
herbicidal effect rating, K: Italian ryegrass (Italian ryegrass [5]): 5 (Herbicidal rate of 90% or more (almost completely withered))
herbicidal effect rating, M: velvetleaf (velvetleaf [6]): 5 (Herbicidal rate of 90% or more (almost completely withered))
herbicidal effect rating, N: redroot pigweed (redroot pigweed): 5 (Herbicidal rate of 90% or more (almost completely withered))
herbicidal effect rating, O: lambsquarters (lambsquarters): 5 (Herbicidal rate of 90% or more (almost completely withered))
herbicidal effect rating, P: chickweed (chickweed): 4 (Herbicidal rate of 70% or more and less than 90%)
effect on green foxtail (G) (green foxtail [7]): 5 (Herbicidal rate of 90% or more (almost completely withered))
effect on wild oat (I) (wild oat [8]): 4 (Herbicidal rate of 70% or more and less than 90%)
effect on blackgrass (J) (blackgrass): 3 (Herbicidal rate of 40% or more and less than 70%)
effect on Italian ryegrass (K) (Italian ryegrass [9]): 5 (Herbicidal rate of 90% or more (almost completely withered))
effect on windgrass (L) (windgrass): 5 (Herbicidal rate of 90% or more (almost completely withered))
effect on velvetleaf (M) (velvetleaf [10]): 5 (Herbicidal rate of 90% or more (almost completely withered))
effect on persian speedwell (R) (persian speedwell): 5 (Herbicidal rate of 90% or more (almost completely withered))
